The values below are quoted from earlier work in US9738620B2, “Trientine prodrugs, pharmaceutical compositions thereof, and methods of use” (priority 2015, dated 2017).

The conditions of this series: Lu., Molecular Cancer Therapeutics. 2010, 9 (9), 2458-67.

Turning to `NCCNCCNCCN` [Trientine], the oral bioavailability is on record as 8-30%.
